According to ChEMBL document CHEMBL4834434, “Discovery of Novel and Potent N-Methyl-d-aspartate Receptor Positive Allosteric Modulators with Antidepressant-like Activity in Rodent Models” (J Med Chem, 2021):
Calls of active or inactive are those of the source. No cut-off for these calls is given here.

Columns and labels:
[1] = target: T1, Glutamate NMDA receptor (Mus musculus) (UniProt P35436+Q91ZU9+Q03391+P35438+Q01097+Q01098+A2AIR5); assay: Positive allosteric modulation of C57BL/6 mouse NMDA receptor assessed as fold change in compound potentiated NMDA-induced current relative to NMDA current alone at 30 uM measured after 15 to 30 mins by patch-clamp method; type: tissue-based; conditions: Brain, filed as positive allosteric modulator, time 15-30 min
[2] = target: T1, Glutamate NMDA receptor (Mus musculus); assay: Positive allosteric modulation of C57BL/6 mouse NMDA receptor assessed as fold change in compound potentiated NMDA-induced current relative to NMDA current alone in presence of saturating glutamate by patch-clamp method; type: tissue-based; conditions: Brain, filed as positive allosteric modulator
[3] = test system: Mus musculus; assay: Antidepressant activity in ICR mouse assessed as decrease in immobility time at 3 to 10 mg/kg, ip measured after 26 mins by forced swim test; type: functional, organism-based; conditions: dose 3-10 mg/kg
[4] = Effect on locomotor activity in ICR mouse assessed as hypolocomotion at 10 mg/kg, ip measured after 90 mins; type: ADME, organism-based; conditions: in vivo, 1.5 h
[5] = test system: Mus musculus; assay: Antidepressant activity in ICR mouse aassessed as inhibition of apomorphine-induced climbing behaviour at 10 mg/kg, ip administered prior to APO challenge and measured after 30 mins; type: functional, organism-based
[6] = target: D(3) dopamine receptor (Homo sapiens) (UniProt P35462); assay: Displacement of [3H]-methylspiperone from human dopamine D3 receptor expressed in CHO cells incubated for 60 mins by liquid scintillation counting analysis; type: cell-based
[7] = target: Adrenergic receptor alpha-1 (Rattus norvegicus) (UniProt P15823+P23944+P43140); assay: Displacement of [3H]-prazosin from rat adrenergic alpha 1 receptor incubated for 60 mins by liquid scintillation counting analysis; type: protein assay
[8] = target: 5-hydroxytryptamine receptor 2A (Homo sapiens) (UniProt P28223); assay: Displacement of [3H]-ketanserin from human 5HT2AR expressed in CHO cells incubated for 30 mins by liquid scintillation counting analysis; type: cell-based
[9] = target: 5-hydroxytryptamine receptor 2C (Rattus norvegicus) (UniProt P08909); assay: Displacement of [3H]-mesulergine from rat cerebral cortex 5HT2CR incubated for 15 mins by liquid scintillation counting analysis; type: tissue-based
[10] = target: Sodium-dependent noradrenaline transporter (Homo sapiens) (UniProt P23975); assay: Displacement of [3H]-Nisoxetine from NET (unknown origin)
[11] = Half life in ICR mouse at 3 mg/kg, iv measured up to 24 hrs by HPLC-MS/MS analysis; type: ADME, organism-based; conditions: in vivo
[12] = AUC (0 to t) in ICR mouse at 3 mg/kg, iv measured up to 24 hrs by HPLC-MS/MS analysis; type: ADME, organism-based; set-up: route intravenous, dose 3 mg/kg, time <=24; conditions: in vivo
[13] = Clearance in ICR mouse at 3 mg/kg, iv measured up to 24 hrs by HPLC-MS/MS analysis; type: ADME, organism-based; conditions: in vivo
[14] = Ratio of drug concentration in brain to plasma in ICR mouse at 3 mg/kg, iv measured at 0.5 hrs by LC-MS/MS analysis; type: ADME, organism-based; conditions: read-out: BPR
[15] = Drug concentration in ICR mouse brain at 3 mg/kg, iv measured at 2 hrs; type: ADME, organism-based; conditions: read-out: Ct
[16] = Ratio of drug concentration in brain to plasma in ICR mouse at 3 mg/kg, iv measured at 2 hrs by LC-MS/MS analysis; type: ADME, organism-based; conditions: read-out: BPR
[17] = Cmax in ICR mouse at 10 mg/kg, po measured up to 24 hrs by HPLC-MS/MS analysis; type: ADME, organism-based; set-up: route oral, dose 10 mg/kg, time <=24; conditions: in vivo
[18] = Half life in ICR mouse at 10 mg/kg, po measured up to 24 hrs by HPLC-MS/MS analysis; type: ADME, organism-based; conditions: in vivo
[19] = Oral bioavailability in ICR mouse at 10 mg/kg measured up to 24 hrs by HPLC-MS/MS analysis; type: ADME, organism-based; conditions: in vivo
[20] = Drug concentration in ICR mouse brain at 10 mg/kg, po measured at 0.5 hrs by LC-MS/MS analysis; type: ADME, organism-based; conditions: read-out: Ct
[21] = Ratio of drug concentration in brain to plasma in ICR mouse at 10 mg/kg, po measured at 0.5 hrs by LC-MS/MS analysis; type: ADME, organism-based; conditions: read-out: BPR
[22] = Half life in Sprague-Dawley rat at 10 mg/kg, po measured up to 1280 mins by HPLC-MS/MS analysis; type: ADME, organism-based; conditions: in vivo
[23] = Tmax in Sprague-Dawley rat at 10 mg/kg, po measured up to 1280 mins by HPLC-MS/MS analysis; type: ADME, organism-based; conditions: in vivo
[24] = AUC (0 to t) in Sprague-Dawley rat at 10 mg/kg, po measured up to 1280 mins by HPLC-MS/MS analysis; type: ADME, organism-based; set-up: route oral, dose 10 mg/kg, time <=1280; conditions: in vivo
[25] = Drug concentration in Sprague-Dawley rat brain at 3 mg/kg, iv measured at 80 mins by LC-MS/MS analysis; type: ADME, organism-based; conditions: read-out: Ct
[26] = Drug concentration in Sprague-Dawley rat plasma at 3 mg/kg, iv measured at 20 mins by LC-MS/MS analysis; type: ADME, organism-based
[27] = Drug concentration in Sprague-Dawley rat plasma at 3 mg/kg, iv measured at 80 mins by LC-MS/MS analysis; type: ADME, organism-based
[28] = Ratio of drug concentration in brain to plasma in Sprague-Dawley rat at 3 mg/kg, iv measured at 20 mins by LC-MS/MS analysis; type: ADME, organism-based; conditions: read-out: BPR
[29] = Cytotoxicity against mouse L929 cells assessed as cell growth inhibition at 120 uM measured after 48 hrs by CCK8 assay relative to control; type: cell-based
[30] = Cytotoxicity against human HEK293 cells assessed as cell growth inhibition at 120 uM measured after 48 hrs by CCK8 assay relative to control; type: cell-based

5-hydroxytryptamine receptor 2A (Homo sapiens), sequence (P28223 whole entry): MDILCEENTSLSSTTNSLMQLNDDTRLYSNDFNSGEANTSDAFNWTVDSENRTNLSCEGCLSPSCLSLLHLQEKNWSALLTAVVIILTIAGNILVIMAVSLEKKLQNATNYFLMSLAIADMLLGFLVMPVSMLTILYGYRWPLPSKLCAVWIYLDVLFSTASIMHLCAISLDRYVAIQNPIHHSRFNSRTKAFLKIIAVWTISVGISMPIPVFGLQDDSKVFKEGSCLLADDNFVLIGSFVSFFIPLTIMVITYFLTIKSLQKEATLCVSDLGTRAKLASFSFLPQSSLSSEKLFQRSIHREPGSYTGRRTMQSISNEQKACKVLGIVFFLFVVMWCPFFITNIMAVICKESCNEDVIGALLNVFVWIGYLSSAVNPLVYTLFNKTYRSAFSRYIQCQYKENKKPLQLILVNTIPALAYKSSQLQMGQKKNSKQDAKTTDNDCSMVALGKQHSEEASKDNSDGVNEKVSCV
Sodium-dependent noradrenaline transporter (Homo sapiens), sequence (P23975 whole entry): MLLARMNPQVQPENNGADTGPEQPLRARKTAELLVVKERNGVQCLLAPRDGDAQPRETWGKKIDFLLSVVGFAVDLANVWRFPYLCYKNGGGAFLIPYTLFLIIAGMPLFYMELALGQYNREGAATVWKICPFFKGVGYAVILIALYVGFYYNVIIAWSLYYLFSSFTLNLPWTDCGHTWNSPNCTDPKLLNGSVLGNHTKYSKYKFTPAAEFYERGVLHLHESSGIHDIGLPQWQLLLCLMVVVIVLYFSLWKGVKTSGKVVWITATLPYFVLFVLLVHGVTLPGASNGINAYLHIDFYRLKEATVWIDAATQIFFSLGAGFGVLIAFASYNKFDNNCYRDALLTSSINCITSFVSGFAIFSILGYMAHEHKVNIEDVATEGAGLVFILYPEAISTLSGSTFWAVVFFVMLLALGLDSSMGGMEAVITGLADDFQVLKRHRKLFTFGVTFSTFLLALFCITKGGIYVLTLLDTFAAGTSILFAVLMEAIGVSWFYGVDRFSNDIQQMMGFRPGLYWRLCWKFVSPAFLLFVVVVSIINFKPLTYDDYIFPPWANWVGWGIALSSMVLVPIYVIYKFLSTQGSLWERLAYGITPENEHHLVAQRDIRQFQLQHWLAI
5-hydroxytryptamine receptor 2C (Rattus norvegicus), sequence (P08909 whole entry): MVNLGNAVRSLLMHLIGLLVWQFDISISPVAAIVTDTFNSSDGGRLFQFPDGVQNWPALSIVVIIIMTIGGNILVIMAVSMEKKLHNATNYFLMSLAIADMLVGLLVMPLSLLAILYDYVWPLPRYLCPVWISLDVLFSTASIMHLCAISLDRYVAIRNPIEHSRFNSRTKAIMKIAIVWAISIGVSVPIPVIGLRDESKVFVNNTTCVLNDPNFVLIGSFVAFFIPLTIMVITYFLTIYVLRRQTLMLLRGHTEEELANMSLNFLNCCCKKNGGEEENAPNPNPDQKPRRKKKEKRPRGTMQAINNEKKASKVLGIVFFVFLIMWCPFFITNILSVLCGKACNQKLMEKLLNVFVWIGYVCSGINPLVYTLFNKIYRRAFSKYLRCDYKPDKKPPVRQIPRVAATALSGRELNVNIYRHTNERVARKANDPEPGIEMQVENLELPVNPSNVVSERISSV
D(3) dopamine receptor (Homo sapiens), sequence (P35462 whole entry): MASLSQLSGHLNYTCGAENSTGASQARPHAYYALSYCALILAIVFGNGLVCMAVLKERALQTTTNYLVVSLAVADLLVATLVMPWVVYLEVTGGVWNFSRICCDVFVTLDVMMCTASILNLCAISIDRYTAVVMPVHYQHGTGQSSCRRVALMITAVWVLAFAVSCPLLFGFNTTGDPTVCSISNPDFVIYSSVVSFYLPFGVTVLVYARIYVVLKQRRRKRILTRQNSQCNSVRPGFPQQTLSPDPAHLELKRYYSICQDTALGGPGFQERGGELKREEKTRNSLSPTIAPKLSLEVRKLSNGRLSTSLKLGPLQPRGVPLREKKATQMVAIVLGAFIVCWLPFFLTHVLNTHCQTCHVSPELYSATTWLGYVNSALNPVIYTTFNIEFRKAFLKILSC

For Cc1cc(C)n(Cc2ccc(C(=O)Nc3ccc(Cl)c(Cl)c3)s2)n1, the fold change (FC) [1] was 12.5, the fold change (FC) [2] was 14.3 and the Activity [3] was “Active”. The Activity [4] was “Non-Toxic”, the Activity [5] was “inactive” and the inhibition [6] was “inactive”. The inhibition [7] was “inactive”, the inhibition [8] was “inactive” and the inhibition [9] was “inactive”. The inhibition [10] was “inactive”, the half-life [11] was 2.8 h and the AUC(0-t) at 24 h [12] was 1450 ng·h/mL. The clearance [13] was 33.3 mL/min/kg, the Kp at 0.5 h [14] was 0.41 and the concentration at 2 h [15] was 85.5 ng/mL. For the same molecule, the Kp at 2 h [16] was 0.34, the Cmax [17] was 760 ng/mL and the half-life [18] was 2.9 h. It also gave a bioavailability [19] of 63.3%, a concentration at 0.5 h [20] of 281 ng/mL and a Kp at 0.5 h [21] of 0.37. The half-life [22] was 1.13 h, the Tmax [23] was 0.555 h and the AUC(0-t) at 1280 min [24] was 503 ng·h/mL. For the same molecule, the concentration at 1.333 h [25] was 354 ng/g, the concentration at 20 min [26] was 1490 ng/mL and the concentration at 1.333 h [27] was 239 ng/mL. It also gave a Kp at 20 min [28] of 1.5, an inhibition at 48 h, 120 µM [29] of -4.6% and an inhibition at 48 h, 120 µM [30] of -14%.
